Test results: ChEMBL document CHEMBL3108665, “Himbacine-derived thrombin receptor antagonists: c7-aminomethyl and c9a-hydroxy analogues of vorapaxar” (ACS Med Chem Lett, 2014)
Active and inactive are the calls of the source. The calls are words filed in the database; no cut-off is given here.

How the values were obtained:
[1] = target: T1, Proteinase-activated receptor 1 (Homo sapiens, UniProt P25116); assay: Displacement of [3H]haTRAP from PAR-1 isolated from human platelets by liquid scintillation counting analysis
T1 sequence (P25116 whole entry): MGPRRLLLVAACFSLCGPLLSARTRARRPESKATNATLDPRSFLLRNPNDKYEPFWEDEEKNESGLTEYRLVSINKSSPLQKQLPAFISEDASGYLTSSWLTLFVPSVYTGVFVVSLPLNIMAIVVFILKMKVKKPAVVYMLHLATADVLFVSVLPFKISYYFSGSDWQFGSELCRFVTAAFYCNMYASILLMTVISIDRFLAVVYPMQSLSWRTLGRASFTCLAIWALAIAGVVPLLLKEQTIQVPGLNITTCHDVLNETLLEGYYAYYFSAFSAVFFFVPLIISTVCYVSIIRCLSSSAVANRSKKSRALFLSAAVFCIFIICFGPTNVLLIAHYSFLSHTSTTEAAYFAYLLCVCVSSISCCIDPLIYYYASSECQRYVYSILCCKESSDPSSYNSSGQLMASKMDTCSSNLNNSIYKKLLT

[2] = AUC (0 to 6 hrs) in rat plasma at 10 mg/kg, po; assay type: ADME, organism-based; parameters: time < 6 hr, dose 10 mg/kg, route oral
[3] = system: Cynomolgus monkey; assay: Ex vivo inhibition of PAR-1 in cynomolgus monkey blood assessed as inhibition of haTRAP-induced platelet aggregation at 1 mg/kg, po up to 24 hrs by aggregometry; assay type: functional, organism-based; parameters: dose 1 mg/kg; details: Macaca fascicularis
[4] = Aqueous solubility of the compound; assay type: physicochemical

| Ki [1] | AUC(0-t) at 6 h [2] | solubility [4] | SMILES | Activity [3] |
| --- | --- | --- | --- | --- |
| 180 nM |  |  | C[C@H]1OC(=O)[C@@H]2C[C@@H]3C[C@H](C(=O)N4CC[C@@H](O)C4)CC[C@H]3[C@H](/C=C/c3ccc(-c4cccc(C(F)(F)F)c4)cn3)[C@H]12 |  |
| 140 nM |  |  | C[C@H]1OC(=O)[C@@H]2C[C@@H]3C[C@H](C(=O)Nc4ccncc4)CC[C@H]3[C@H](/C=C/c3ccc(-c4cccc(C(F)(F)F)c4)cn3)[C@H]12 |  |
| 35 nM |  |  | CCNC(=O)[C@@H]1CC[C@@H]2[C@@H](C1)C[C@H]1C(=O)O[C@H](C)[C@H]1[C@H]2/C=C/c1ccc(-c2cccc(C(F)(F)F)c2)cn1 |  |
| 12.5 nM | 7730 ng·h/mL |  | CCC(=O)NC[C@@H]1CC[C@@H]2[C@@H](C1)C[C@H]1C(=O)O[C@H](C)[C@H]1[C@H]2/C=C/c1ccc(-c2cccc(F)c2)cn1 |  |
| 24 nM |  |  | C[C@H]1OC(=O)[C@@H]2C[C@@H]3C[C@H](CNC(=O)[C@@H]4CCCN4)CC[C@H]3[C@H](/C=C/c3ccc(-c4cccc(F)c4)cn3)[C@H]12 |  |
| 5 nM | 4860 ng·h/mL |  | COC(=O)NC[C@@H]1CC[C@@H]2[C@@H](C1)C[C@H]1C(=O)O[C@H](C)[C@H]1[C@H]2/C=C/c1ccc(-c2cccc(F)c2)cn1 | inactive |
| 239 nM |  |  | C[C@H]1OC(=O)[C@@H]2C[C@@H]3C[C@H](C(=O)Nc4cccnc4)CC[C@H]3[C@H](/C=C/c3ccc(-c4cccc(C(F)(F)F)c4)cn3)[C@H]12 |  |
| 31 nM |  |  | CC(C)NC(=O)[C@@H]1CC[C@@H]2[C@@H](C1)C[C@H]1C(=O)O[C@H](C)[C@H]1[C@H]2/C=C/c1ccc(-c2cccc(C(F)(F)F)c2)cn1 |  |
| 13.5 nM | 5 ng·h/mL |  | C[C@H]1OC(=O)[C@@H]2C[C@@H]3C[C@H](CNC(=O)C4CCNCC4)CC[C@H]3[C@H](/C=C/c3ccc(-c4cccc(F)c4)cn3)[C@H]12 |  |
| 12 nM | 3810 ng·h/mL |  | CC(=O)NC[C@@H]1CC[C@@H]2[C@@H](C1)C[C@H]1C(=O)O[C@H](C)[C@H]1[C@H]2/C=C/c1ccc(-c2cccc(F)c2)cn1 |  |
| 20 nM |  |  | C[C@H]1OC(=O)[C@@H]2C[C@@H]3C[C@H](CN)CC[C@H]3[C@H](/C=C/c3ccc(-c4cccc(F)c4)cn3)[C@H]12 |  |
| 32 nM |  |  | C[C@H](N)C(=O)NC[C@@H]1CC[C@@H]2[C@@H](C1)C[C@H]1C(=O)O[C@H](C)[C@H]1[C@H]2/C=C/c1ccc(-c2cccc(F)c2)cn1 |  |
| 98 nM |  |  | C[C@H]1OC(=O)[C@@H]2C[C@@H]3C[C@H](C(=O)NCCO)CC[C@H]3[C@H](/C=C/c3ccc(-c4cccc(C(F)(F)F)c4)cn3)[C@H]12 |  |
| 8 nM | 2670 ng·h/mL |  | C[C@H]1OC(=O)[C@@H]2C[C@@H]3C[C@H](CO)CC[C@H]3[C@H](/C=C/c3ccc(-c4cccc(F)c4)cn3)[C@H]12 |  |
| 12.9 nM | 567 ng·h/mL |  | CCNC(=O)NC[C@@H]1CC[C@@H]2[C@@H](C1)C[C@H]1C(=O)O[C@H](C)[C@H]1[C@H]2/C=C/c1ccc(-c2cccc(F)c2)cn1 |  |
| 25 nM |  |  | CNC(=O)[C@@H]1CC[C@@H]2[C@@H](C1)C[C@H]1C(=O)O[C@H](C)[C@H]1[C@H]2/C=C/c1ccc(-c2cccc(C(F)(F)F)c2)cn1 |  |
| 14 nM | 1210 ng·h/mL |  | CCOC(=O)NC[C@@H]1CC[C@@H]2[C@@H](C1)C[C@H]1C(=O)O[C@H](C)[C@H]1[C@H]2/C=C/c1ccc(-c2cccc(F)c2)cn1 |  |
| 15 nM | 7760 ng·h/mL |  | C[C@H]1OC(=O)[C@@H]2C[C@@H]3C[C@H](CNS(C)(=O)=O)CC[C@H]3[C@H](/C=C/c3ccc(-c4cccc(F)c4)cn3)[C@H]12 |  |
|  |  | < 2 µM | CCOC(=O)N1CC[C@@H]2[C@H](C[C@H]3C(=O)O[C@H](C)[C@H]3[C@H]2/C=C/c2ccc(-c3cccc(F)c3)cn2)C1 |  |
| 14.5 nM |  |  | CCS(=O)(=O)NC[C@@H]1CC[C@@H]2[C@@H](C1)C[C@H]1C(=O)O[C@H](C)[C@H]1[C@H]2/C=C/c1ccc(-c2cccc(F)c2)cn1 |  |
| 19.5 nM | 7430 ng·h/mL |  | CCOC(=O)N[C@@H]1CC[C@@H]2[C@@H](C1)C[C@@]1(O)C(=O)O[C@H](C)[C@H]1[C@H]2/C=C/c1ccc(-c2cccc(F)c2)cn1 | Active |
| 384 nM |  |  | C[C@H]1OC(=O)[C@@H]2C[C@@H]3C[C@H](C(=O)N4CC[C@H](O)C4)CC[C@H]3[C@H](/C=C/c3ccc(-c4cccc(C(F)(F)F)c4)cn3)[C@H]12 |  |
| 8.5 nM | 3060 ng·h/mL |  | CCOC(=O)N[C@@H]1CC[C@@H]2[C@@H](C1)C[C@H]1C(=O)O[C@H](C)[C@H]1[C@H]2/C=C/c1ccc(-c2cccc(F)c2)cn1 [VORAPAXAR] |  |
